The values below come from patent US11780822B2, “HDAC inhibitor solid state forms” (Viracta Subsidiary, Inc., priority 2019, dated 2023).

Entries after “also recorded” stand apart in the source; their conditions may differ.

Holding throughout (assay type): physicochemical
Data set [1] is described as follows: Competitive suspension equilibrations of Form A + Form B composites. The following applies: stirred overnight. The protocol:
Objective: Determine the fates of the Form A and Form B when equilibrated in ethanol under anhydrous and aqueous conditions at 20° C. and 40° C.
Procedure: Composites, prepared from equimolar amounts of Form A and Form B were charged to separate vials and ethanol (13 vol) or ethanol/water (10/3 v/v, 13 vol) were added. The two pairs of mixtures were stirred at 20° C. or 40° C. overnight.

Data set [2] can be described thus: Effect of elevated humidity, desiccator analysis at equilibrium humidity. The following applies: for Δwt. Percent: RH 75-80%; for Output Form designation (XRPD): after exposure to 75 to 80% RH at 18 to 23° C. for 72 h. The protocol:
The effect of elevated humidity (75 to 80% RH at 18 to 23° C.) on the thermally dehydrated Form A residue from the preceding experiment, was examined via conventional desiccator analysis at equilibrium humidity. Compound 1 Form A (ca. 16 mg) was heated at a rate of +10° C./min from 20 to 160° C. to include the first endothermic event and exclude the second event (see FIG. 2). The content of the spent crucible was exposed to 75 to 80% RH (relative humidity) at 18 to 23° C. for 72 h. The corresponding weight changes were recorded and the internal conditions of the humidity enclosures were monitored. The absorbent increased in weight (refer to Table 4), but this was not accompanied by a significant change in the diffraction pattern, or dehydration event by DSC.

The nature of data set [3]: Dynamic Vapor Sorption (DVS) analyses. The following applies: for Hygroscopicity by DVS: 25° C., RH 0-90-0%; for Weight lost during the pre-equilibration: DVS at 25° C., drying 0% RH for 120 min. As for the experimental part:
Use the following parameters: • Equilibrium: dm/dt: 0.002%/min. (for min: 10 min and max: 180 min). • Drying: 0% RH for 120 min • RH (%) measurement step: 5% • RH (%) measurement step scope: 0-90-0% The criteria for hygroscopicity evaluation are listed in below: DVS analysis was performed on compound 1 Form A and compound 1 Form B to determine the degree of hygroscopicity. The results are provided in FIGS. 13A, FIG. 13B, FIG. 14A and FIG. 14B.

Data set [4] in a line: Suspension equilibration of single Form A and B under production conditions. The following applies: 40° C., stirred overnight. As for the experimental part:
Objective: Determine the fates of single Form A and B when equilibrated in ethanol under anhydrous and aqueous conditions at 40° C.
Procedure: Form B and Form A were charged to separate vials. Ethanol/water (10/3 v/v, 13 vol) and ethanol (13 vol) were added, respectively. The mixtures were stirred at 20° C. or 40° C. overnight.

Data set [5] is described as follows: Anhydrous suspension equilibrations of Form A at 20° C. and 40° C. The following applies: stirred 7 to 10 days at 40° C. The protocol:
Objective: Examine the effect of suspension equilibration of compound 1 under anhydrous conditions at 20° C. and 40° C. and determine the physical form of the products.
Procedure: Compound 1 (ca 50 mg, 1.0 wt) and the appropriate solvent (1000 μl, 20 vol) were charged to separate vessels and two parallel banks of experiments were stirred for 7 to 10 days at 20° C. and 40° C. After this time the products were cooled, isolated by filtration, washed with recycled maturation solvent, dried under reduced pressure at 20° C. and analyzed by XRPD for evidence of alternative crystalline forms.

Data set [6] can be described thus: Thermal investigations (heating in DSC, residue analysed by XRPD or 1H NMR). The protocol: A Mettler Toledo DSC 821 instrument was used for the thermal analysis operating with STARe™ software. The analysis was conducted in […], open aluminum pans, under nitrogen and sample sizes ranged from 1 to 10 mg. Typical analysis method was 20 to 250 at 10° C./minute.
Procedure: First experiment-A sample of compound 1 Form A containing 5.1% w/w water and 0.2% w/w ethanol (ca. 16 mg) was heated at a rate of +10° C./min from 20 to 160° C. to include the first endothermic event and exclude the second event (refer to FIG. 2).
Procedure: First event: A sample of compound 1 Form C (ca. 7 mg) was heated at a rate of +10° C./min from 20 to 120° C. to include the first endothermic event (refer to FIG. 9). The content of the spent crucible was expressed, the residue was analyzed by XRPD and the diffraction pattern was compared to the input diffraction pattern.
Third event: A sample of compound 1 Form C (ca. 5 mg) was heated at a rate of +10° C./min from 20 to 150° C. to include the multiple thermal events (refer to FIG. 9). The content of the spent crucible was expressed, the residue was analyzed by XRPD and the diffraction pattern was compared to the input diffraction pattern.
Procedure: First event: a sample of compound 1 Form E (ca. 8 mg) was heated at a rate of +10° C./min from 20 to 160° C. to include the first endothermic event and exclude the second event (refer to FIG. 11). The content of the spent crucible was expressed, the residue was analyzed by XRPD and the diffraction pattern was compared to the input diffraction pattern (see FIG. 12).

[7] abbreviates: heated at +10° C./min from 20 to 160° C.

Consider `O=C(NO)c1cnc(N2C[C@@H]3[C@H](C2)[C@H]3NCc2ccc3cc(F)ccc3n2)nc1` [Form A + Form B (1/1 w/w)], for which the “Output form (XRPD)” value in data set [1] (Ethanol, 20° C.) is listed as “B (Major”; in data set [1] (Ethanol, 20° C., listed as composite Form A+B) it was “near complete conversion into Form B”; in data set [1] (Ethanol, 40° C.) it was “Form B”; in data set [1] (Ethanol, 40° C., listed as composite Form A+B), “complete turnover into single Form B”; in data set [1] (Ethanol/water (10/3 v/v), 20° C.) it was “Form A”; in data set [1] (Ethanol/water (10/3 v/v), 20° C., listed as composite Form A+B), “single Form A”. The “Output form (XRPD)” value in data set [1] (Ethanol/water (10/3 v/v), 40° C.) was “Form A”; in data set [1] (Ethanol/water (10/3 v/v), 40° C., listed as composite Form A+B), “single Form A”.
Regarding `O=C(NO)c1cnc(N2C[C@@H]3[C@H](C2)[C@H]3NCc2ccc3cc(F)ccc3n2)nc1` [Form A after heating up to 160° C.], the “Δwt. Percent” value in data set [2] (0 h @ 18-23° C.) is 0.0% w/w; in data set [2] (1 h @ 18-23° C.), 14.6% w/w; in data set [2] (24 hr @ 18-23° C.), 13.2% w/w; in data set [2] (72 hr @ 18-23° C.) it was 14.6% w/w. For the same compound, the “Output Form designation (XRPD)” value in data set [2] was “Isostructural”; in data set [2] (listed as Form A dehydrate) it was “did not revert back to Form A”.
As for `O=C(NO)c1cnc(N2C[C@@H]3[C@H](C2)[C@H]3NCc2ccc3cc(F)ccc3n2)nc1` [Form A, N-hydroxy 2-{6-[(6-fluoro-quinolin-2-ylmethyl)-amino]-3-aza-bicyclo[3.1.0]hex-3-yl}pyrimidine-5-carboxamide], in data set [3], the “Hygroscopicity by DVS” value was “neither being hygroscopic; also recorded: not hygroscopic”. In data set [3], the “Weight lost during the pre-equilibration” value is about 0.25 % w/w. In addition, the “Output form (XRPD)” value is listed as “converted to Form B” in data set [4] (Ethanol) and “Form B” in data set [4] (Ethanol, listed as Form A (A0822-170-AD1)). For the same compound, the “Output form @ 40° C. (XRPD)” value in data set [5] (1,4-dioxane (20 vol)), in data set [5] (2-Propanol (20 vol)), in data set [5] (Acetone (20 vol)), in data set [5] (Anisole (20 vol)), in data set [5] (Butanol (20 vol)) and in data set [5] (Chlorobenzene (20 vol)) was “A + B” in each case. In addition, the “Output form @ 40° C. (XRPD)” value in data set [5] (Cumene (20 vol)), in data set [5] (Dichloromethane (20 vol)), in data set [5] (Ethyl acetate (20 vol)), in data set [5] (Ethyl ether (20 vol)), in data set [5] (Heptane (20 vol)) and in data set [5] (Isopropyl acetate (20 vol)) was “A + B” in each case. In addition, the “Output form @ 40° C. (XRPD)” value in data set [5] (Methyl acetate (20 vol)), in data set [5] (Nitromethane (20 vol)), in data set [5] (Propionitrile (20 vol)), in data set [5] (Tetrahydrofuran (20 vol)), in data set [5] (Trifluorotoluene (20 vol)) and in data set [5] (tert-Butylmethyl ether (20 vol)) was “A + B” throughout. For the same compound, the “Form of residue after heating (XRPD)” value in data set [6] (setting [7]) is recorded as “consistent with Form B”. Further, in data set [6] (heated at +10° C./min from 20 to 230° C., cooled), the “State after heating (1H NMR)” value was “extensive degradation”. Moreover, in data set [6] (post heating to 200° C.), the “Large exothermic event (DSC, confirmed by 1H NMR)” value is reported as “consistent with degradation”.
Turning to `O=C(NO)c1cnc(N2C[C@@H]3[C@H](C2)[C@H]3NCc2ccc3cc(F)ccc3n2)nc1` [Form B, N-hydroxy 2-{6-[(6-fluoro-quinolin-2-ylmethyl)-amino]-3-aza-bicyclo[3.1.0]hex-3-yl}pyrimidine-5-carboxamide], in data set [3], the “Hygroscopicity by DVS” value is listed as “neither being hygroscopic”. Moreover, in data set [3] (40° C., high water activity, stated among the DVS observations), the “Form conversion at high water activity” value is “promoted the conversion into Form A”. In data set [3], the “Weight lost during the pre-equilibration” value is 0.03 % w/w. The “Output form (XRPD)” value in data set [4] (Ethanol/water (10/3 v/v)) is “mixture Form A and B”; in data set [4] (Ethanol/water (10/3 v/v), listed as Form B (A0822-170-AC1)), “A + B”.
For `O=C(NO)c1cnc(N2C[C@@H]3[C@H](C2)[C@H]3NCc2ccc3cc(F)ccc3n2)nc1` [Form C, N-hydroxy 2-{6-[(6-fluoro-quinolin-2-ylmethyl)-amino]-3-aza-bicyclo[3.1.0]hex-3-yl}pyrimidine-5-carboxamide], the “Form of residue after heating (XRPD)” value in data set [6] (heated at +10° C./min from 20 to 120° C.) is given as “consistent with an isomorphic desolvate/dehydrate”; in data set [6] (heated at +10° C./min from 20 to 150° C.), “converted into isostructural Form B”.
Consider `O=C(NO)c1cnc(N2C[C@@H]3[C@H](C2)[C@H]3NCc2ccc3cc(F)ccc3n2)nc1` [Form E, N-hydroxy 2-{6-[(6-fluoro-quinolin-2-ylmethyl)-amino]-3-aza-bicyclo[3.1.0]hex-3-yl}pyrimidine-5-carboxamide], for which the “Form of residue after heating (XRPD)” value in data set [6] (setting [7]) is reported as “consistent with Form B”.
